Values of other authors as cited in US12167995B2, “[((1R,2S,5R)-2-isopropyl-5-methyl-cyclohexanecarbonyl)-amino]-acetic acid isopropyl ester for treatment of chronic cough” (AXALBION SA, priority 2019, dated 2024).
Entries after “also recorded” stand apart in the source; their conditions may differ. Like-named read-outs stand apart in the source and are kept apart here.

Assays:
[1] = test system: refractory chronic cough (RCC); conditions: cited from earlier work
[2] = test system: acute cough induced by capsaicin; conditions: MK-7264: in RCC patients or in healthy subjects; cited from earlier work
[3] = test system: isolated guinea pig vagal nerves; conditions: Maher et al., 2014; cited from earlier work

Structure (SMILES) | patients with adverse events related to taste (dysgeusia, hypogeusia, or ageusia) ([1]; 50 mg per day) [%] | patients with adverse events related to taste (dysgeusia, hypogeusia, or ageusia) ([1]; 1200 mg per day) [%] | effect on VAS scores in RCC patients ([1]; human, in vivo) | effect on cough frequency in RCC patients ([1]; human, in vivo) | effect on acute cough induced by capsaicin [2] | TRPM8 dependence of inhibition of capsaicin-induced response [3]
COc1cc(C(C)C)c(Oc2cnc(N)nc2N)cc1S(N)(=O)=O [MK-7264] | 81 | 100 | poorly effective in improving the VAS scores | efficient in reducing cough frequency; also recorded: efficient in decreasing cough frequency in RCC patients | not effective for acute cough induced by the tussive stimulus capsaicin | 
O=C(Nc1ccccc1Br)N[C@@H]1CCN(c2ccc(C(F)(F)F)cn2)C1 [SB-705498] |  |  |  | do not reduce cough frequency in RCC patients | inhibit acute cough induced by capsaicin | 
CC(C)[C@@H]1CC[C@@H](C)C[C@H]1O [menthol, (1R,2S,5R)-2-isopropyl-5-methyl-cyclohexanol] |  |  |  |  |  | in a TRPM8-independent way
